Test results reported in US20120277312A1, “Ethylgallate and Related Compounds as a Treatment for Sepsis and Septic Shock” (priority 2009, published 2012).

Target: T1, catalase (Homo sapiens, UniProt P04040)
T1 sequence (P04040 2-527 limits assumed): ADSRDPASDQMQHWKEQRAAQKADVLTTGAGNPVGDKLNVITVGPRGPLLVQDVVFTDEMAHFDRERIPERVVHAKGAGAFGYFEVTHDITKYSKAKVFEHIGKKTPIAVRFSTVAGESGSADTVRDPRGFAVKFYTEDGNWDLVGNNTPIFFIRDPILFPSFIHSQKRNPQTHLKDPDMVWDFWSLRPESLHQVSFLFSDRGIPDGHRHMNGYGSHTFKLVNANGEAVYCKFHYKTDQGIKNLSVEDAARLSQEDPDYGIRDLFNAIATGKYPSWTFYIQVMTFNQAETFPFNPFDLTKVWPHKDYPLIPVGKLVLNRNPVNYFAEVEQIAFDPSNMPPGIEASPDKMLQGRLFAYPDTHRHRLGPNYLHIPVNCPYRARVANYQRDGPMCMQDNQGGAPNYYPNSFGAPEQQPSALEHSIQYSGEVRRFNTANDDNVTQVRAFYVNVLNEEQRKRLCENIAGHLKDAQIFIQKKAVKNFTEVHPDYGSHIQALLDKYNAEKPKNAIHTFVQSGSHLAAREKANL
Assay: Conversion of catalase to compound I (wave-scan spectroscopy)
Type: biochemical
From the text: This generation appears to involve the mechanism described by Wentworth et al in which proteins can utilize water as a catalyst to generate H2O2 (12) Once formed by lysozyme, H2O2 then reacts with intrinsic catalase to form a species of catalase termed Compound I (2) Compound I then acts to generate cyclic-guanosine monophosphate which in turn causes vasodilation. […] These as well as other mechanisms may account for the efficacy of ethyl-gallate treatment in septic shock.

SMILES: CCOC(=O)c1cc(O)c(O)c(O)c1 [ethyl gallate]
- inhibition of degradation of catalase to compound I: can inhibit
